Measured values from US4749683A, “Inhibition of gastric acid secretion with alpha-transforming growth factor” (President and Fellows of Harvard College, priority 1986, dated 1988).
Where “and” joins values, the source holds several entries; their conditions need not be identical. Identical values can stand only once.

Tested on: guinea pig gastric mucosa
Experiment: Histamine-induced gastric acid secretion of isolated guinea pig gastric mucosa in Ussing chambers, pH stat method
Type: cell-based, guinea pigs
Details: for Ratio of pre- and post histamine treatment acid secretion (mean SEM): relative to 30 minute period prior to histamine
Experimental: Unfasted female guinea pigs (205-330 g) were killed by cervical dislocation and the stomachs were removed. The antrum was discarded and the stomach was rinsed clean with several washes of mammalian Ringer's solution at 37° C. The stomach was hemisected along the greater and lesser curvatures and the mucosa was separated from the seromuscularis with a pair of fine forceps. Mucosae from both sides were stretched and separately mounted in Lucite Ussing chambers (diameter 1.6 cm) and the assembled chambers were connected to water jacketted gas-lift incubators. The nutrient (submucosal) surface was bathed in 15 ml of a solution containing: 122 mM NaCl, 25.0 mM NaHCO3, 5.0 mM KCl, […] MgSO4, 2.0 mM CaCl2, 1.0 mM KH2 PO4, 20.0 mM glucose, and 100 ug/ml gentamycin sulphate (Garamycin). The solution was gassed with 95% O2 -5% CO2 bubbled through distilled water which maintained pH at 7.45-7.55. The luminal (mucosal) surface was bathed in 15 ml unbuffered saline (150 mM NaCl) which was gassed with 100% O2 passed through 500 mM NaOH to remove CO2. Gastric acid secretion was measured by the pH stat method. pH was held at 4.5 with a pH stat coupled to an autoburette and acid secretion was determined by the amount of NaOH necessary to maintain pH in the luminal solution. All solutions were maintained at 37° C. with a heated water circulator. Tissues were initially allowed to stabilize in the chambers a minimum of 2 hours. Saline with or without alpha TGF (60 ng/ml final concentration) was then added to the nutrient bath and the basal rate of acid secretion was monitored for 30 minutes. Twenty-one paired sets of tissue specimens from the same animal were employed, one receiving alpha-TGF, the other serving as control. All tissues were then treated with histamine (10^-4 M) and acid secretion was measured for an additional 3 hours. When calculated in terms of absolute levels of acid secretion, differences between control and TGF-treated tissues were significant (p<0.05) at 120, 150, and 180 minutes.

alpha-transforming growth factor [TGF] was tested, and the “Ratio of pre- and post histamine treatment acid secretion (mean SEM)” value (“Ratio … (mean SEM)” for short) (0 min., alpha TGF 60 ng/ml) was 1.00 ± 0.00, the “Gastric acid secretion (mean ± SEM)” value (0 time, basal rate before histamine, alpha TGF 60 ng/ml in nutrient bath, n=21) was 1.80 ± 0.21 uEq./cm^2 /hr and the “Gastric acid secretion (mean ± SEM)” value (30 min. after histamine 10^-4 M, alpha TGF 60 ng/ml) was 2.09 ± 0.24 uEq./cm^2 /hr. For the same substance, the “Ratio … (mean SEM)” value (30 min., alpha TGF 60 ng/ml) was 1.17 ± 0.04, the “Effect on the basal rate of acid secretion” value (30 minutes before histamine, alpha TGF 60 ng/ml) was “no effect” and the “Ratio … (mean SEM)” value (60 min. (one hour), alpha TGF 60 ng/ml) was 1.48 ± 0.11 and 1.49±0.11. The “Gastric acid secretion (mean ± SEM)” value (60 min. after histamine 10^-4 M, alpha TGF 60 ng/ml) was 2.62 ± 0.35 uEq./cm^2 /hr, the “Gastric acid secretion (mean ± SEM)” value (90 min. after histamine 10^-4 M, alpha TGF 60 ng/ml) was 2.97 ± 0.38 uEq./cm^2 /hr and the “Ratio … (mean SEM)” value (90 min., alpha TGF 60 ng/ml) was 1.67 ± 0.12. The “Ratio … (mean SEM)” value (120 min. (two hours), alpha TGF 60 ng/ml) was 1.68 ± 0.11, the “Gastric acid secretion (mean ± SEM)” value (120 min. after histamine 10^-4 M, alpha TGF 60 ng/ml) was 2.97 ± 0.35 uEq./cm^2 /hr and the “Gastric acid secretion (mean ± SEM)” value (150 min. after histamine 10^-4 M, alpha TGF 60 ng/ml) was 3.04 ± 0.37 uEq./cm^2 /hr. For the same substance, the “Ratio … (mean SEM)” value (150 min., alpha TGF 60 ng/ml) was 1.73 ± 0.12, the “Ratio … (mean SEM)” value (180 min. (three hours), alpha TGF 60 ng/ml) was 1.81 ± 0.27 and the “Gastric acid secretion (mean ± SEM)” value (180 min. after histamine 10^-4 M, alpha TGF 60 ng/ml) was 3.16 ± 0.68 uEq./cm^2 /hr.
